Assay results reported in patent US11484543B2, “Compositions and methods for diagnosing and treating diseases and disorders associated with mutant KCNJ5” (The Rockefeller University, priority 2017, dated 2022).

Columns and labels:
KCNJ3/KCNJ5^WT = molecular target: T1, KCNJ3/KCNJ5^WT (Homo sapiens, UniProt P48544); experiment: Perforated whole-cell patch clamp, KCNJ3/KCNJ5^WT heterotetramers in HEK293T cells; assay type: cell-based; conditions: 20 μM, 10 minutes after addition
T1 construct: GFP; expressed in transfected cells; host or cells: HEK293T (American Type Culture Collection), transient co-transfection
T1 sequence (P48544 1-419): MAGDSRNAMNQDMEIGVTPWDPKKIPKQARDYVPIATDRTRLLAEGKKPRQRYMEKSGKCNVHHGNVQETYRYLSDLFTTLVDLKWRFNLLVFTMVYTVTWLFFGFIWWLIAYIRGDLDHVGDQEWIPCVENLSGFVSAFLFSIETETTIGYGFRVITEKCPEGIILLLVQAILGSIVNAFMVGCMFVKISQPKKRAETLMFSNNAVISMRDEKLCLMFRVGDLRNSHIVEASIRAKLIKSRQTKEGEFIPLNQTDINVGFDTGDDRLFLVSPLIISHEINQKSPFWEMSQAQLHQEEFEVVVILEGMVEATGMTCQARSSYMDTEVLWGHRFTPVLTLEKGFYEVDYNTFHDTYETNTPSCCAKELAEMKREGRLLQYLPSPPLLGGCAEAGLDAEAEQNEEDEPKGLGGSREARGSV
T1 sequence (P48549 1-501 partner): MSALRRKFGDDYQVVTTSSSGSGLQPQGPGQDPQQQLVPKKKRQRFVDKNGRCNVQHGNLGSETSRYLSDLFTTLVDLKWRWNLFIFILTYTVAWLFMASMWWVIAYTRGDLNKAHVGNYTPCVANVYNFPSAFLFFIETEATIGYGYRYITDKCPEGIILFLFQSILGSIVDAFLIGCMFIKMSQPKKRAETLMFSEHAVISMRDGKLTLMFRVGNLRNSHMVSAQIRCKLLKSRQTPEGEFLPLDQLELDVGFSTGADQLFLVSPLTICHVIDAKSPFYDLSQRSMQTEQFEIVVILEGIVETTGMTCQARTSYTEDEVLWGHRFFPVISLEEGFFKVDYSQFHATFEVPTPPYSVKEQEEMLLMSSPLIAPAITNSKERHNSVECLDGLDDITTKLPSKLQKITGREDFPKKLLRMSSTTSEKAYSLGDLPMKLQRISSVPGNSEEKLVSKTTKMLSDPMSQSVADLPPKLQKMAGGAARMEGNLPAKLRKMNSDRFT
Description: HEK293T cells (American Type Culture Collection) were used for transient expression of GFP-tagged KCNJ5 or KCNJ3. The cells were grown in Dulbecco's modified Eagle medium (DMEM; Invitrogen) supplemented with 10% FBS (Invitrogen) in 5% CO2 and 95% air at 37° C. Cells were grown to 50-70% confluence for transfection, and the corresponding cDNAs (Choi et al., 2011, Science 331:768-772) were simultaneously applied to the cells using TurboFect transfection reagent according to the manufacturer's protocol (Fermentas). […]
(§1) Within 24 hr after transfection, the cells were treated with trypsin-containing medium (TrypLE Express) (Gibco) for 10 minutes to detach the cells. […] Fluorescence signal (an indication of positive transfection) was detected with an intensified video imaging system including a SIT 68 camera (Long Island Industries). […] After forming a high resistance seal (>2 GΩ), the membrane capacitance was monitored until the whole-cell patch configuration was formed. The cell membrane capacitance was measured and compensated. The K/cation currents were measured from −80 mV to 20 mV with 20 mV steps by an Axon 200A patch-clamp amplifier. The currents were low-pass filtered at 1 KHz and digitized by an Axon interface (Digidata 1200) and were analyzed using the pClamp software system 9 (Axon). […]

KCNJ5^WT = molecular target: T2, KCNJ5^WT (Homo sapiens, UniProt P48544); experiment: Perforated whole-cell patch clamp, KCNJ5^WT homotetramers in HEK293T cells; assay type: cell-based; conditions: increasing concentrations, −80 mV (FIG. 12D)
T2 construct: expressed in transfected cells
T2 sequence (P48544 1-419): T1 sequence (P48544 1-419)
Description: Cation currents were measured with the perforated whole cell recording technique (140 mM NaCl/5 mM KCl bath solution, 140 mM KCl pipette solution for KCNJ5^G151R; 140 mM NaCl/5 mM KCl bath solution, 140 mM KCl, 1.8 mM MgCl2 pipette solution for KCNJ5^L168R; 140 mM KCl bath and pipette solution for KCNJ5^WT). […] Errors represent standard error of the mean, N=3 to 6. […] In contrast, WT currents are not inhibited.
HEK293T cells (American Type Culture Collection) were used for transient expression of GFP-tagged KCNJ5 or KCNJ3. The cells were grown in Dulbecco's modified Eagle medium (DMEM; Invitrogen) supplemented with 10% FBS (Invitrogen) in 5% CO2 and 95% air at 37° C. […]
as §1, with “amplifier.” for “amplifier. The currents were low-pass filtered at 1 KHz and digitized by an Axon interface (Digidata 1200) and were analyzed using the pClamp software system 9 (Axon).”

CC[C@H]1OC(=O)[C@H](C)[C@@H](O[C@H]2C[C@@](C)(OC)[C@@H](O)[C@H](C)O2)[C@H](C)[C@@H](O[C@@H]2O[C@H](C)C[C@H](N(C)C)[C@H]2O)[C@](C)(O)C[C@@H](C)/C(=N\OCOCCOC)[C@H](C)[C@@H](O)[C@]1(C)O [Roxithromycin, roxithromycin]
inhibition of potassium currents in KCNJ3/KCNJ5^WT channels (KCNJ3/KCNJ5^WT): no inhibition | inhibition of WT currents (KCNJ5^WT): not inhibited
